Assay results taken from patent US6444651B1, “Antimicrobial agents for eucaryotic microorganisms and methods of growth suppression of eucaryotic microorganisms using these agents” (Asama Chemical Co., Ltd., priority 1997, dated 2002).

Test system: Fungi
Experiment: Preservation tests for milky-lotion type hair tonics (Example 9)
Set-up: key: +: Fungi appeared
Conditions: day 14; 37° C.; DNA 0.03%, control 0.1% Ethyl p-hydroxy benzoate
Method: A milky-lotion type hair tonic was prepared using the components described below. It was manufactured under the open system since microbial infection from the air was expected.
The oil phase (A) and aqueous phase (B) were heated to 85° C., respectively. Then, (A) and (B) were mixed and agitated to emulsification at the same temperature. A hair tonic was prepared after the mixture was cooled down to normal temperature.
The hair tonic prepared was poured into a bottle with 0.03% of the DNA. The bottle was sealed and kept at 37° C. for preservation tests. 0.1% Ethyl p-hydroxy benzoate was added to the hair tonic as a control instead of the DNA.

SMILES: CCOC(=O)c1ccc(O)cc1 [Control, Ethyl p-hydroxy benzoate]
- appearance of fungi in hair tonic: +
